The values below come from the supplement of paper PMC10307832.

Common to all, as to experiment: relative viability (nuclei count vs DMSO), 5 days (fraction); higher = more cells survive
Compound in test [1]: CN(C)CC1=CC(=CC=C1)N=C(C2=CC=CC=C2)C3=C(NC4=C3C=CC(=C4)C(=O)N(C)C)O + CC1(C)CCC(c2ccc(Cl)cc2)=C(CN2CCN(c3ccc(C(=O)NS(=O)(=O)c4ccc(N[C@H](CCN5CCOCC5)CSc5ccccc5)c(S(=O)(=O)C(F)(F)F)c4)cc3)CC2)C1 [Navitoclax] (partner 0.5 µM)
The essentials: (§1)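 Lung cancer cell lines were pin-tool dosed in 1536-well plates on the day after seeding, with either a lone drug or a fixed anchor-drug dose plus five library-drug doses (not always all listed) in √10 steps. Nuclei were counted on 4× images after 5 days. Relative viability is the ratio of treated-well to vehicle-well nuclei counts, with each value a median of duplicate plates.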

Compound in test [2]: CN(C)CC1=CC(=CC=C1)N=C(C2=CC=CC=C2)C3=C(NC4=C3C=CC(=C4)C(=O)N(C)C)O + Cc1cc(Nc2cc(N3CCN(C)CC3)nc(Sc3ccc(NC(=O)C4CC4)cc3)n2)n[nH]1 [Tozasertib] (partner 0.1 µM)
In short, it runs like this:
as §1

Compound in test [3]: CN(C)CC1=CC(=CC=C1)N=C(C2=CC=CC=C2)C3=C(NC4=C3C=CC(=C4)C(=O)N(C)C)O + N=C(N)NC(=N)NCCc1ccccc1 [Phenformin] (partner 250 µM)
The essentials:
as §1

Compound in test [4]: CN(C)CC1=CC(=CC=C1)N=C(C2=CC=CC=C2)C3=C(NC4=C3C=CC(=C4)C(=O)N(C)C)O
In short, it runs like this:
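Five library-drug doses, separated by factors of √10, were pinned into 1536-well plates holding lung cancer cell lines after an overnight stay at 37 °C. Cells were fixed, permeabilised and Hoechst-stained in one step after 5 days without medium change, then imaged at 4×. Viability compares treated-well with vehicle-well nuclei, counted in MetaXpress, as a median across plates. Passing plates had control CV below 25% and at least one doubling.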

Turning to NCI-H2228, the relative viability worked out at 0.868 in test [1] (first compound 0.08 µM); 0.909 in test [1] (first compound 0.253 µM); 0.731 in test [1] (first compound 0.8 µM); 0.803 in test [1] (first compound 2.53 µM); 0.663 in test [1] (first compound 8 µM); 0.221 in test [2] (first compound 0.08 µM). Moreover, the relative viability is 0.332 in test [2] (first compound 0.253 µM); 0.265 in test [2] (first compound 0.8 µM); 0.228 in test [2] (first compound 2.53 µM); 0.232 in test [2] (first compound 8 µM); 0.403 in test [3] (first compound 0.08 µM); 0.308 in test [3] (first compound 0.253 µM). Moreover, the relative viability in test [3] (first compound 0.8 µM) turned out to be 0.312; in test [3] (first compound 2.53 µM) it was 0.254; in test [3] (first compound 8 µM) it was 0.357; in test [4] (0.08 µM), 1.04; in test [4] (0.253 µM), 1.06; in test [4] (0.8 µM) it was 0.874. The relative viability in test [4] (2.53 µM) amounted to 0.879; in test [4] (8 µM), 0.789.

Turning to NCI-H2347, the relative viability in test [1] (first compound 0.08 µM) was determined as 0.898; in test [1] (first compound 0.253 µM) it was 0.878; in test [1] (first compound 0.8 µM), 0.67; in test [1] (first compound 2.53 µM) it was 0.775; in test [1] (first compound 8 µM) it was 0.871; in test [2] (first compound 0.08 µM) it was 0.615. In addition, the relative viability came out at 0.522 in test [2] (first compound 0.253 µM); 0.522 in test [2] (first compound 0.8 µM); 0.56 in test [2] (first compound 2.53 µM); 0.603 in test [2] (first compound 8 µM); 0.436 in test [3] (first compound 0.08 µM); 0.46 in test [3] (first compound 0.253 µM). The relative viability was found to be 0.368 in test [3] (first compound 0.8 µM); 0.454 in test [3] (first compound 2.53 µM); 0.467 in test [3] (first compound 8 µM); 0.996 in test [4] (0.08 µM); 1.08 in test [4] (0.253 µM); 0.971 in test [4] (0.8 µM). The relative viability in test [4] (2.53 µM) was 1; in test [4] (8 µM), 1.09.

On to NCI-H2405, for which the relative viability was found to be 1.17 in test [1] (first compound 0.08 µM); 0.759 in test [1] (first compound 0.253 µM); 1.1 in test [1] (first compound 0.8 µM); 0.786 in test [1] (first compound 2.53 µM); 0.742 in test [1] (first compound 8 µM); 0.748 in test [2] (first compound 0.08 µM). For the same cell line, the relative viability in test [2] (first compound 0.253 µM) was 0.74; in test [2] (first compound 0.8 µM) it was 0.748; in test [2] (first compound 2.53 µM), 0.662; in test [2] (first compound 8 µM) it was 0.645; in test [3] (first compound 0.08 µM) it was 0.358; in test [3] (first compound 0.253 µM) it was 0.387. Further, the relative viability in test [3] (first compound 0.8 µM) was found to be 0.378; in test [3] (first compound 2.53 µM), 0.347; in test [3] (first compound 8 µM), 0.249; in test [4] (0.08 µM) it was 1.02; in test [4] (0.253 µM), 1.01; in test [4] (0.8 µM), 1.01. In addition, the relative viability in test [4] (2.53 µM) was found to be 0.902; in test [4] (8 µM) it was 0.979.

In the case of NCI-H3122, the relative viability in test [1] (first compound 0.08 µM) is 1.01; in test [1] (first compound 0.253 µM) it was 1.01; in test [1] (first compound 0.8 µM), 1.06; in test [1] (first compound 2.53 µM), 1.03; in test [1] (first compound 8 µM), 1.04; in test [2] (first compound 0.08 µM), 0.416. The relative viability was 0.359 in test [2] (first compound 0.253 µM); 0.448 in test [2] (first compound 0.8 µM); 0.383 in test [2] (first compound 2.53 µM); 0.438 in test [2] (first compound 8 µM); 0.386 in test [3] (first compound 0.08 µM); 0.38 in test [3] (first compound 0.253 µM). In addition, the relative viability turned out to be 0.391 in test [3] (first compound 0.8 µM); 0.302 in test [3] (first compound 2.53 µM); 0.354 in test [3] (first compound 8 µM); 0.948 in test [4] (0.08 µM); 0.94 in test [4] (0.253 µM); 1.08 in test [4] (0.8 µM). Besides, the relative viability in test [4] (2.53 µM) is 1.01; in test [4] (8 µM) it was 1.02.

Regarding PC-3 [JPC-3], the relative viability stood at 0.787 in test [1] (first compound 0.08 µM); 0.703 in test [1] (first compound 0.253 µM); 0.643 in test [1] (first compound 0.8 µM); 0.84 in test [1] (first compound 2.53 µM); 0.843 in test [1] (first compound 8 µM); 0.877 in test [2] (first compound 0.08 µM). Also, the relative viability in test [2] (first compound 0.253 µM) was determined as 0.855; in test [2] (first compound 0.8 µM) it was 0.854; in test [2] (first compound 2.53 µM), 0.814; in test [2] (first compound 8 µM) it was 0.922; in test [3] (first compound 0.08 µM), 0.446; in test [3] (first compound 0.253 µM) it was 0.485. For the same cell line, the relative viability worked out at 0.428 in test [3] (first compound 0.8 µM); 0.46 in test [3] (first compound 2.53 µM); 0.496 in test [3] (first compound 8 µM); 1.04 in test [4] (0.08 µM); 1.05 in test [4] (0.253 µM); 0.866 in test [4] (0.8 µM). Also, the relative viability was found to be 1.06 in test [4] (2.53 µM) and 1.09 in test [4] (8 µM).
